Reference: article PMC9029089, “1,5-Disubstituted Acylated 2-Amino-4,5-dihydroimidazoles as a New Class of Retinoic Acid Receptor–Related Orphan Receptor (ROR) Inhibitors” (International Journal of Molecular Sciences, 2022)
Like-named read-outs stand apart in the source and are kept apart here.

Experiments:
Assay type in all cases: cell-based
RORγ [1] = target: T1, RORγ (Mus musculus, UniProt P51450); test: Gal4-RORγ-LBD UAS-luciferase reporter assay in TRex-CHO-K1 cells (doxycycline-stimulated); conditions: for % Inhibition at 4 μM (N=3): library 2520, RORγ cells
T1 construct: mRORγ (Pro-261-end); expressed in transfected cells
T1 sequence (P51450 261-516 limits assumed): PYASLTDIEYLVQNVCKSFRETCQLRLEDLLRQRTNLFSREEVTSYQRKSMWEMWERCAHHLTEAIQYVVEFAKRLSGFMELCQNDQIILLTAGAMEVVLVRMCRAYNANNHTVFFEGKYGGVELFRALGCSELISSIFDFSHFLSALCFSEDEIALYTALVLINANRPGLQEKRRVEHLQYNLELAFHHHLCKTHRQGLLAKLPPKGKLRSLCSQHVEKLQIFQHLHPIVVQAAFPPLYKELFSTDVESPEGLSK

RORγ [2] = target: T1, RORγ; test: as above; conditions: for selectivity towards RORγ over RORα and RORβ: from IC50 values in reporter cells
Description: (§1) The Gal4-DBD-ROR-LBD fusion proteins were subcloned in the pcDNA4/TO expression vector (Thermo Scientific) and transfected into TRex-CHO-K1 cells (Thermo Scientific) for tetracycline-controlled expression of the corresponding ROR proteins. Transfected cells were selected with hygromycin and Zeocin and individual clones for each of the Gal4-RORγ, Gal4-RORα, and Gal4-RORβ cell lines were isolated using a standard serial dilution protocol. Clones with the highest doxycycline-dependent stimulation of luciferase activity were selected for all functional experiments.
(§2) For screening FIU libraries, cells were resuspended in Ham’s F-12 assay medium containing 2% charcoal-treated FBS and no selection drugs. […] Cells were allowed to attach for 2 h, followed by compound treatment and stimulation with 20 ng/mL doxycycline for an additional 16–20 h. Appropriate solvent controls, negative controls with no doxycycline, and blanks with no cells were included in every plate. Prior to measuring luciferase activity, 6 µL of 0.15 mg/mL resazurin (Cayman Chemical) in PBS were added and cells were incubated for 1 h at 37 °C. Fluorescence intensity was detected at 545 nm excitation/590 nm emission using a CLARIOstar reader (BMGLabtech) as a measure of cell viability, to identify any potential cytotoxic effect of test compounds and mixtures.
(§3) Luminescence was normalized by the fluorescence intensity and the percentage of inhibition was calculated with respect to control cells stimulated with doxycycline in the presence of solvent control (0.1% DMF). All primary screens with individual compounds were performed in triplicate with a final concentration of 5 µg/mL. […] IC50 values were calculated using GraphPrism (GraphPad software).

RORα = target: T2, RORα (Homo sapiens, UniProt P35398); test: Gal4-RORα-LBD UAS-luciferase reporter assay in TRex-CHO-K1 cells (doxycycline-stimulated)
T2 construct: hRORα (Pro-211-end); expressed in transfected cells
T2 sequence (P35398 266-523): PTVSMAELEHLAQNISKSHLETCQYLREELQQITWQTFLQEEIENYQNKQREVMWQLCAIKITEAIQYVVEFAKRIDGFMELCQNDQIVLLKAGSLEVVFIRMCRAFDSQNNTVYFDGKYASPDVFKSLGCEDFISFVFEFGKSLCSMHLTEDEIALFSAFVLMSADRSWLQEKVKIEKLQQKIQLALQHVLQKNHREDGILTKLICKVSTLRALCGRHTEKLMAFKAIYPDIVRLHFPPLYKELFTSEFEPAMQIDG
Description: as §1, §2, §3

RORβ = target: T3, RORβ (Rattus norvegicus, UniProt P45446); test: Gal4-RORβ-LBD UAS-luciferase reporter assay in TRex-CHO-K1 cells (doxycycline-stimulated)
T3 construct: rRORβ (Pro 205-end); expressed in transfected cells
T3 sequence (P45446 205-459 isoform P45446-1): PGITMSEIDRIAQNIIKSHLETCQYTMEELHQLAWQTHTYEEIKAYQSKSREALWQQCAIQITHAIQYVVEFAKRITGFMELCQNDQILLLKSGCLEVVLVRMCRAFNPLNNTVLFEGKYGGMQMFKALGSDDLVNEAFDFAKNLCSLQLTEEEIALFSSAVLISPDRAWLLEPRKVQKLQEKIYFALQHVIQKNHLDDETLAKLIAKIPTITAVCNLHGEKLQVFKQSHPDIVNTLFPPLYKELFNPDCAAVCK
Description: To investigate the transcriptional activity of all three RORs, we generated stable cell lines expressing an UAS-driven luciferase reporter together with the corresponding Gal4-DNA binding domain fused to the ligand binding domains (LBDs) of mRORγ (Pro-261-end), hRORα (Pro-211-end), or rRORβ (Pro 205-end). The Gal4-DBD-ROR-LBD fusion proteins were subcloned in the pcDNA4/TO expression vector (Thermo Scientific) and transfected into TRex-CHO-K1 cells (Thermo Scientific) for tetracycline-controlled expression of the corresponding ROR proteins. Transfected cells were selected with hygromycin and Zeocin and individual clones for each of the Gal4-RORγ, Gal4-RORα, and Gal4-RORβ cell lines were isolated using a standard serial dilution protocol. Clones with the highest doxycycline-dependent stimulation of luciferase activity were selected for all functional experiments. All cell lines were maintained in complete Ham’s F12 medium containing 10% fetal bovine serum (FBS), 10 µg/mL blasticidine, 100 µg/mL hygromycin, and 100 µg/mL Zeocin and were used within 2 months of culture without any loss of doxycycline-dependent stimulation of luciferase activity.
For screening FIU libraries, cells were resuspended in Ham’s F-12 assay medium containing 2% charcoal-treated FBS and no selection drugs. Ten thousand cells per well were seeded in 30 µL of assay medium in 384 white plates with clear bottom (Greiner). Cells were allowed to attach for 2 h, followed by compound treatment and stimulation with 20 ng/mL doxycycline for an additional 16–20 h. Appropriate solvent controls, negative controls with no doxycycline, and blanks with no cells were included in every plate. Prior to measuring luciferase activity, 6 µL of 0.15 mg/mL resazurin (Cayman Chemical) in PBS were added and cells were incubated for 1 h at 37 °C. Fluorescence intensity was detected at 545 nm excitation/590 nm emission using a CLARIOstar reader (BMGLabtech) as a measure of cell viability, to identify any potential cytotoxic effect of test compounds and mixtures. Following the resazurin assay, the medium was removed and 20 µL of BriteLite-Plus luciferase reagent (Perking Elmer) were added; luminescence was measured in a CLARIOstar reader using a 384 aperture spoon and a 0.1 sec measuring time interval.
as §3

[3] = read-out: IC50 (μM, N=4) ROR-Gamma, library 2520
[4] = read-out: IC50 (μM, N=4) ROR-Alpha, library 2520
[5] = read-out: IC50 (μM, N=4) ROR-Beta, library 2520
[6] = IC50 (μM) (N=4) RORγ, individual controls of library 1295, second confirmatory dose response, Figure 2
[7] = T-REx-CHO-K1, read-out: % Inhibition RORγ 5 μg/ml
[8] = IC50 (μM) (N=4) RORα, individual controls of library 1295, second confirmatory dose response, Figure 2
[9] = IC50 (μM) (N=4) RORβ, individual controls of library 1295, second confirmatory dose response, Figure 2
[10] = T-REx-CHO-K1, individual controls 1295.201-307, 5 μg/ml, triplicate, read-out: % Inhibition RORγ 5 μg/ml
[11] = individual controls of library 1295, second confirmatory dose response, Figure 2

For `CCOc1ccc(C[C@H]2CN=C(NC(=O)C(C)C)N2CC2CCCCC2)cc1` [2520.48], the “% Inhibition at 4 μM (N=3)” value (RORγ [1]) was 69.2%, the IC50 (RORγ [2]; [3]) was 9.27 ± 0.4 µM and the IC50 (RORα; [4]) was 9.61 ± 0.5 µM. For the same molecule, the IC50 (RORβ; [5]) was 6.57 ± 0.5 µM.

`CC(CC(=O)NC1=NC[C@H](Cc2ccccc2)N1CCc1ccccc1)c1ccccc1` (stereo partly shown) [1295.274] was tested, and the IC50 (RORγ [2]; [6]) was 4.8 µM, the inhibition at 5 µg/mL (RORγ [2]; [7]) was 105% and the “selectivity towards RORγ over RORα and RORβ” value (RORγ [2]) was “slightly more selective than RORα/β”. For the same molecule, the IC50 (RORα; [8]) was 7.4 ± 0.2 µM and the IC50 (RORβ; [9]) was 6.7 ± 0.3 µM.

For `CCC(C(=O)NC1=NC[C@H](Cc2ccccc2)N1CCC(C)c1ccccc1)c1ccccc1` (stereo partly shown) [2520.31], the inhibition at 4 µM (RORγ [1]; T-REx-CHO-K1, library 2520, RORγ cells, read-out: % Inhibition at 4 μM (N=3)) was 70.5%, the IC50 (RORγ [2]; IC50 (μM, N=4) ROR-Gamma, library 2520) was 3.95 ± 0.3 µM and the IC50 (RORγ [2]; RORγ : IC50, Figure 6, confirmatory experiment, N = 4) was 3.9 ± 0.3 µM. The IC50 (RORα; IC50 (μM, N=4) ROR-Alpha, library 2520) was 6.82 ± 0.4 µM, the IC50 (RORα; RORα : IC50, Figure 6, confirmatory experiment, N = 4) was 6.8 ± 0.4 µM and the IC50 (RORβ; IC50 (μM, N=4) ROR-Beta, library 2520) was 5.5 ± 0.3 µM.

Work on `O=C(CCC1CCCCC1)NC1=NC[C@H](Cc2ccccc2)N1CCc1ccccc1` [1295.305] yielded an inhibition at 5 µg/mL (RORγ [2]; [10]) of 82.8%, an IC50 (RORγ [2]; [11]) of 6.6 ± 1.4 µM and an IC50 (RORα; [8]) of 10.3 ± 3.7 µM. It also gave an IC50 (RORβ; [9]) of 10.4 ± 0.7 µM.

In the case of `CC(C)C(=O)NC1=NCC(Cc2ccccc2)N1CCC(C)c1ccccc1` (mixture of isomers) [2520.28], the “% Inhibition at 4 μM (N=3)” value (RORγ [1]) is reported as 69.8%, the IC50 (RORγ [2]; [3]) is reported as 6.37 ± 0.4 µM and the IC50 (RORα; [4]) is reported as 8.48 ± 0.4 µM. For the same molecule, the IC50 (RORβ; [5]) was 6.17 ± 0.3 µM.

With `CCOc1ccc(CC2CN=C(NC(=O)Cc3ccc(OC)cc3)N2CCC(C)c2ccccc2)cc1` (mixture of isomers) [2520.46] the “% Inhibition at 4 μM (N=3)” value (RORγ [1]) was 67.3%, the IC50 (RORγ [2]; [3]) was 5.31 ± 0.2 µM and the IC50 (RORα; [4]) was 5.82 ± 0.3 µM. The IC50 (RORβ; [5]) was 5.46 ± 0.3 µM.

`CC1CCC(C(=O)NC2=NC[C@H](Cc3ccccc3)N2CCc2ccccc2)CC1` (stereo partly shown) [1295.306] gave an IC50 (RORγ [2]; [6]) of 9.5 ± 2.6 µM, an inhibition at 5 µg/mL (RORγ [2]; [7]) of 97.8% and an IC50 (RORα; [8]) of 9.7 ± 1.6 µM. For the same molecule, the IC50 (RORβ; [9]) was 9.4 ± 0.6 µM.

In the case of `CCC(C(=O)NC1=NCC(Cc2ccc3ccccc3c2)N1CCC1CC2CCC1C2)c1ccccc1` (mixture of isomers) [2520.11], the “% Inhibition at 4 μM (N=3)” value (RORγ [1]) is reported as 67.6%, the IC50 (RORγ [2]; [3]) is reported as 7.55 ± 0.5 µM and the IC50 (RORα; [4]) is reported as 10.3 ± 0.4 µM. For the same molecule, the IC50 (RORβ; [5]) was 7.3 ± 0.8 µM.

For `O=C(CCCC1CCCCC1)NC1=NC[C@H](Cc2ccccc2)N1CCc1ccccc1` [1295.300], the inhibition at 5 µg/mL (RORγ [2]; [10]) was 82.8%, the IC50 (RORγ [2]; [11]) was 8.7 ± 2 µM and the IC50 (RORα; [8]) was 10.2 ± 0.4 µM. It also gave an IC50 (RORβ; [9]) of 12.3 ± 0.8 µM.

With `O=C(Cc1ccccc1)NC1=NC[C@H](Cc2ccccc2)N1CCc1ccc(-c2ccccc2)cc1` [1295.248] the inhibition at 5 µg/mL (RORγ [2]; [10]) was 91.5%, the “selectivity towards RORγ over RORα and RORβ” value (RORγ [2]) was “two-fold selectivity” and the IC50 (RORγ [2]; [11]) was 5 µM. It also gave an IC50 (RORα; [8]) of 10.1 µM and an IC50 (RORβ; [9]) of 12.1 µM.

For `CCC(C(=O)NC1=NCC(C(C)CC)N1CC1CCCCC1)c1ccccc1` (mixture of isomers) [2520.15], the “% Inhibition at 4 μM (N=3)” value (RORγ [1]) was 43.6%, the IC50 (RORγ [2]; [3]) was 4.69 ± 0.2 µM and the IC50 (RORα; [4]) was 5.97 ± 0.2 µM. It also gave an IC50 (RORβ; [5]) of 3.66 ± 0.3 µM.

Molecule `O=C(CC1CCCCC1)NC1=NC[C@H](Cc2ccccc2)N1CCc1ccccc1` [1295.299] has an IC50 (RORγ [2]; [6]) of 8.4 ± 1.5 µM, an inhibition at 5 µg/mL (RORγ [2]; [7]) of 89.6% and an IC50 (RORα; [8]) of 14.1 ± 1.6 µM. For the same molecule, the IC50 (RORβ; [9]) was 12.7 ± 4.2 µM.
